# Source: publication doi:10.1101/2022.01.25.477728v2 (biorxiv, 2022)
# Molecular target: T1, TcBDF2 / TcBD2 (TcBDF2HA) (Trypanosoma cruzi, UniProt A0A2V2V5V1)
# T1 sequence (A0A2V2V5V1 2-119): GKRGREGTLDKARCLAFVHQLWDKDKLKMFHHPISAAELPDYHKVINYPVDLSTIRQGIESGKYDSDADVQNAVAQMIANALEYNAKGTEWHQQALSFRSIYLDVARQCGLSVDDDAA
# Assay: intrinsic tryptophan fluorescence quenching
# Assay type: binding
row,Kd,Structure (SMILES)
1,~14 µM,CCOC(=O)Nc1cc(-c2ccc(C)c(NS(C)(=O)=O)c2)nn2c(C)nnc12 [Bromosporine]
2,~14 µM,COc1cc2c(cc1-c1c(C)noc1C)ncc1[nH]c(=O)n([C@H](C)c3ccccn3)c12 [iBET-151]
3,> 150 µM,COc1cc(OC)c2c(=O)[nH]c(-c3cc(C)c(OCCO)c(C)c3)nc2c1 [RVX-208]
